Results: ChEMBL document CHEMBL1134488, “Potent reversible inhibitors of the protein tyrosine phosphatase CD45” (J Med Chem, 2001)
pIC50: −log10 of the molar value. Where a SMILES comes first, the peptide text is derived from it. The star is where a group is joined. Phenanthrenequinone2carbonyl = O=C1C(=O)c2cc(C(=O)*)ccc2-c2ccccc21; 3Phenanthroyl(9,10-dioxo) = O=C1C(=O)c2ccc(C(=O)*)cc2-c2ccccc21; X1 = O=C1C(=O)c2cc(N*)ccc2-c2ccccc21

Columns and labels:
[1] = molecular target: T1, Receptor-type tyrosine-protein phosphatase C (Homo sapiens, UniProt P08575); experiment: In vitro inhibitory activity against the cytosolic portion of CD45 protein-tyrosine phosphatase using pNPP as the substrate
T1 sequence (P08575 whole entry): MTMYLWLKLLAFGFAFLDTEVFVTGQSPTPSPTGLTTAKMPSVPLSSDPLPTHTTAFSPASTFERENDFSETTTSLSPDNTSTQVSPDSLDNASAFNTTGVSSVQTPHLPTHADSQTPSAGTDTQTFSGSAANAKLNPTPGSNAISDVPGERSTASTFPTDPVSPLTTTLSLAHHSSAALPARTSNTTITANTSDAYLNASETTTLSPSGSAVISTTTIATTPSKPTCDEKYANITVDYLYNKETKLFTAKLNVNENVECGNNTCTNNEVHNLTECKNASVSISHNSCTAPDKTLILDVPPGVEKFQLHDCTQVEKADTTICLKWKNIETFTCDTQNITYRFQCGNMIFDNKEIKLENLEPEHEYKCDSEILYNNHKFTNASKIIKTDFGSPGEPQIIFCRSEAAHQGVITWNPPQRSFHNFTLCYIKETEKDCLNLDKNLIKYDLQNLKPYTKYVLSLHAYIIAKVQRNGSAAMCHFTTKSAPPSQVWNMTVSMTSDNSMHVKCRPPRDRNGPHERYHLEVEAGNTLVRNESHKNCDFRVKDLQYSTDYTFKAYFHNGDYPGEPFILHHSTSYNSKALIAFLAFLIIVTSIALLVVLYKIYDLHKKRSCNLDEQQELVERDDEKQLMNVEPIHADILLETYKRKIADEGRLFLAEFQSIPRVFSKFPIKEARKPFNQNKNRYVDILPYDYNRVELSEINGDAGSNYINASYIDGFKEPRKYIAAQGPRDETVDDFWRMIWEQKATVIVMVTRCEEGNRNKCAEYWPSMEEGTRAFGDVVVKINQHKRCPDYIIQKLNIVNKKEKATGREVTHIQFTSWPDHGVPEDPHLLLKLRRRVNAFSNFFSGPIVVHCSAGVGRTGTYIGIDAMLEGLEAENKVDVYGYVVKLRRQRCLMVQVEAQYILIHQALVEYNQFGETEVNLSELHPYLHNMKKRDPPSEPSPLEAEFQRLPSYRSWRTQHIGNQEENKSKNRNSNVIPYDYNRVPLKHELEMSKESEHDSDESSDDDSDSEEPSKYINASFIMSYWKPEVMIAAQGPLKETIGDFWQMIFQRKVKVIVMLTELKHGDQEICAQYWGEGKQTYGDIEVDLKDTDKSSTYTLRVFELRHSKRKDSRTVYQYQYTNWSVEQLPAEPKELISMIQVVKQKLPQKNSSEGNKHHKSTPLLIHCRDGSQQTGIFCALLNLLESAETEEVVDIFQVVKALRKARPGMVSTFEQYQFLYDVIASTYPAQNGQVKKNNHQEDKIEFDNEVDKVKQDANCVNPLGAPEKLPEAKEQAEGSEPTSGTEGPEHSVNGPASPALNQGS

T-cell [2] = experiment: Cytotoxicity measured against human T-cells; type: functional
T-cell [3] = experiment: In vitro inhibition of human T-cell proliferation; type: functional, cell-based
[4] = molecular target: T2, Tyrosine-protein phosphatase non-receptor type 1 (Homo sapiens, UniProt P18031); experiment: Inhibitory concentration against PTP1B using lck as substrate
T2 sequence (P18031 whole entry): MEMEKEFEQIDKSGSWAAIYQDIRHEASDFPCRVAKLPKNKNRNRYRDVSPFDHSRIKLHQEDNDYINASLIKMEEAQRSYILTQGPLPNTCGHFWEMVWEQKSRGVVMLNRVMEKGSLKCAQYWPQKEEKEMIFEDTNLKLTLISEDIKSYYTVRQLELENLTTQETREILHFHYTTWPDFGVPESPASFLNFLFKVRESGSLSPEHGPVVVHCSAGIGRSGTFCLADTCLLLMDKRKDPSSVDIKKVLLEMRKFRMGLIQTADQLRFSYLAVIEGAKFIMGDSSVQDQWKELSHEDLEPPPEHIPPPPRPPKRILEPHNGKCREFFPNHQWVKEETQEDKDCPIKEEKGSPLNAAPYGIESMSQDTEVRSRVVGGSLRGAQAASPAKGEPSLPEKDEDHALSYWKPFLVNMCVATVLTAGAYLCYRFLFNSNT

[5] = molecular target: T1, Receptor-type tyrosine-protein phosphatase C; experiment: Inhibitory concentration against CD45 protein-tyrosine phosphatase using lck-10 mer as substrate

## O=C1C=C(NCCCN2CCCCC2)c2ccccc2C1=O
[1]
  pIC50: < 4.52

## O=C1C(=O)c2cc(NC(=O)c3c(Cl)cc(Cl)cc3Cl)ccc2-c2ccccc21
[1]
  pIC50: 5.27
T-cell [2]
  CC50: 12 µM
T-cell [3]
  pIC50: 5.89

## COC(=O)CCCCCCC(=O)Nc1ccc2c(c1)-c1ccccc1C(=O)C2=O
[1]
  pIC50: 6.15
T-cell [2]
  CC50: 28 µM
T-cell [3]
  pIC50: 5.89

## O=C1C(=O)c2cc(-c3cc4ccccc4o3)ccc2-c2ccccc21
[4]
  pIC50: 4.72
T-cell [2]
  CC50: 3.6 µM
[5]
  pIC50: < 4.52

## O=C1C=C(Nc2ccccc2)c2ccccc2C1=O
[1]
  pIC50: < 4.52

## O=C(O)CC/N=C1\C=C(O)C(=O)c2ccccc21
[1]
  pIC50: < 4.52

## O=C1C(=O)c2cccc([N+](=O)[O-])c2-c2ccc([N+](=O)[O-])cc21
[1]
  pIC50: < 4.52
T-cell [2]
  CC50: > 30 µM
T-cell [3]
  pIC50: < 4.52

## O=C1C(=O)c2cc(-c3ccccc3F)ccc2-c2ccccc21
[1]
  pIC50: 6.10
[4]
  pIC50: 4.74
T-cell [2]
  CC50: 8.4 µM
[5]
  pIC50: < 4.52

## O=C1C(=O)c2ccoc2-c2ccccc21
[4]
  pIC50: < 4.52
T-cell [2]
  CC50: 3.5 µM

## CC(C)(C)OC(=O)CNC(=O)c1ccc2c(c1)C(=O)C(=O)c1ccccc1-2
[4]
  pIC50: < 4.52
T-cell [2]
  CC50: 10 µM
T-cell [3]
  pIC50: 6.40

## CCCC(=O)Nc1ccc2c(c1)-c1ccccc1C(=O)C2=O
[1]
  pIC50: 6.10
[4]
  pIC50: < 4.52
T-cell [2]
  CC50: 9.1 µM
T-cell [3]
  pIC50: 6.10
[5]
  pIC50: 5.28

## COc1ccccc1-c1ccc2c(c1)C(=O)C(=O)c1ccccc1-2
[4]
  pIC50: 4.80
T-cell [2]
  CC50: 9.5 µM
[5]
  pIC50: < 4.52

## CC(=O)NC(CCC(N)=O)C(=O)N[C@@H](CC(=O)Nc1ccc2c(c1)C(=O)C(=O)c1ccccc1-2)C(=O)O (some centres not stated)
[1]
  pIC50: 5.96
T-cell [3]
  pIC50: < 4.52

## O=C1C(=O)c2cc(Br)ccc2-c2ccccc21
[1]
  pIC50: 6.40
T-cell [2]
  CC50: 5 µM
T-cell [3]
  pIC50: 6.22

## O=C(COCc1ccccc1)Nc1ccc2c(c1)C(=O)C(=O)c1ccccc1-2
[4]
  pIC50: 4.74
T-cell [2]
  CC50: 14 µM
T-cell [3]
  pIC50: 6.00

## CC(C)(C)OC(=O)CNC(=O)c1ccc2c(c1)-c1ccccc1C(=O)C2=O
[1]
  pIC50: 6.22
T-cell [2]
  CC50: 3.2 µM
T-cell [3]
  pIC50: 6.49

## CC(=O)N[C@@H](CCC(=O)O)C(=O)NCC(=O)N[C@@H](CCC(N)=O)C(=O)N[C@@H](CC(=O)Nc1ccc2c(c1)C(=O)C(=O)c1ccccc1-2)C(=O)O (Ac-EGQD(X1)-OH)
[1]
  pIC50: 5.82
T-cell [3]
  pIC50: < 4.52

## N=C(N)NCCC[C@H](NC(=O)c1ccc2c(c1)C(=O)C(=O)c1ccccc1-2)C(=O)N[C@@H](CCC(=O)O)C(=O)N1CCC[C@H]1C(=O)N[C@@H](CCCNC(=N)N)C(=O)N[C@@H](CCC(=O)O)C(=O)O (Phenanthrenequinone2carbonyl-REPRE-OH)
[1]
  pIC50: 6.05
T-cell [2]
  CC50: > 30 µM
T-cell [3]
  pIC50: 4.70

## N=C(N)NCCC[C@H](NC(=O)c1ccc2c(c1)C(=O)C(=O)c1ccccc1-2)C(=O)N[C@@H](CCCNC(=N)N)C(=O)N1CCC[C@H]1C(=O)N[C@@H](CCCNC(=N)N)C(=O)NCC(=O)O (Phenanthrenequinone2carbonyl-RRPRG-OH)
T-cell [2]
  CC50: > 30 µM
T-cell [3]
  pIC50: 4.68

## NC(=O)CC[C@H](NC(=O)[C@H](CCC(=O)O)NC(=O)c1ccc2c(c1)-c1ccccc1C(=O)C2=O)C(=O)NCC(=O)N[C@@H](CCC(N)=O)C(=O)N1CCC[C@H]1C(=O)O ({3Phenanthroyl(9,10-dioxo)}-EQGQP-OH)
T-cell [2]
  CC50: > 30 µM
T-cell [3]
  pIC50: 5.15

## NC(=O)CC[C@H](NC(=O)[C@@H]1CCCN1C(=O)[C@H](CCC(N)=O)NC(=O)[C@H](CCC(=O)O)NC(=O)c1ccc2c(c1)-c1ccccc1C(=O)C2=O)C(=O)N1CCC[C@H]1C(=O)O ({3Phenanthroyl(9,10-dioxo)}-EQPQP-OH)
T-cell [2]
  CC50: > 30 µM
T-cell [3]
  pIC50: < 4.52

## NC(=O)CC[C@H](NC(=O)CNC(=O)[C@H](CCC(=O)O)NC(=O)CNC(=O)c1ccc2c(c1)-c1ccccc1C(=O)C2=O)C(=O)N1CCC[C@H]1C(=O)O ({3Phenanthroyl(9,10-dioxo)}-GEGQP-OH)
T-cell [2]
  CC50: > 30 µM
T-cell [3]
  pIC50: 4.98

## NC(=O)CC[C@H](NC(=O)[C@@H]1CCCN1C(=O)[C@H](CCC(=O)O)NC(=O)CNC(=O)c1ccc2c(c1)-c1ccccc1C(=O)C2=O)C(=O)N1CCC[C@H]1C(=O)O ({3Phenanthroyl(9,10-dioxo)}-GEPQP-OH)
T-cell [2]
  CC50: > 30 µM
T-cell [3]
  pIC50: < 4.52

## NC(=O)CC[C@H](NC(=O)CNC(=O)c1ccc2c(c1)-c1ccccc1C(=O)C2=O)C(=O)NCC(=O)N[C@@H](CCC(=O)O)C(=O)N1CCC[C@H]1C(=O)O ({3Phenanthroyl(9,10-dioxo)}-GQGEP-OH)
T-cell [2]
  CC50: > 30 µM
T-cell [3]
  pIC50: < 4.52

## NC(=O)CC[C@H](NC(=O)CNC(=O)c1ccc2c(c1)-c1ccccc1C(=O)C2=O)C(=O)NCC(=O)N[C@@H](CCC(N)=O)C(=O)N1CCC[C@H]1C(=O)O ({3Phenanthroyl(9,10-dioxo)}-GQGQP-OH)
T-cell [2]
  CC50: > 30 µM
T-cell [3]
  pIC50: 4.70

## NC(=O)CC[C@H](NC(=O)[C@@H]1CCCN1C(=O)[C@H](CCC(N)=O)NC(=O)CNC(=O)c1ccc2c(c1)-c1ccccc1C(=O)C2=O)C(=O)N1CCC[C@H]1C(=O)O ({3Phenanthroyl(9,10-dioxo)}-GQPQP-OH)
T-cell [2]
  CC50: > 30 µM
T-cell [3]
  pIC50: < 4.52

## NC(=O)CC[C@H](NC(=O)c1ccc2c(c1)-c1ccccc1C(=O)C2=O)C(=O)N[C@@H](CCC(=O)O)C(=O)NCC(=O)N[C@@H](CCC(N)=O)C(=O)N1CCC[C@H]1C(=O)O ({3Phenanthroyl(9,10-dioxo)}-QEGQP-OH)
T-cell [2]
  CC50: > 30 µM
T-cell [3]
  pIC50: 4.80

## NC(=O)CC[C@H](NC(=O)c1ccc2c(c1)-c1ccccc1C(=O)C2=O)C(=O)N[C@@H](CCC(=O)O)C(=O)N1CCC[C@H]1C(=O)N[C@@H](CCC(N)=O)C(=O)N1CCC[C@H]1C(=O)O ({3Phenanthroyl(9,10-dioxo)}-QEPQP-OH)
T-cell [2]
  CC50: > 30 µM
T-cell [3]
  pIC50: 5.30

## NC(=O)CC[C@H](NC(=O)c1ccc2c(c1)-c1ccccc1C(=O)C2=O)C(=O)N[C@@H](CCC(N)=O)C(=O)NCC(=O)N[C@@H](CCC(N)=O)C(=O)N1CCC[C@H]1C(=O)O ({3Phenanthroyl(9,10-dioxo)}-QQGQP-OH)
T-cell [2]
  CC50: > 30 µM
T-cell [3]
  pIC50: 4.84

## NC(=O)CC[C@H](NC(=O)c1ccc2c(c1)-c1ccccc1C(=O)C2=O)C(=O)N[C@@H](CCC(N)=O)C(=O)N1CCC[C@H]1C(=O)N[C@@H](CCC(N)=O)C(=O)N1CCC[C@H]1C(=O)O ({3Phenanthroyl(9,10-dioxo)}-QQPQP-OH)
T-cell [2]
  CC50: > 30 µM
T-cell [3]
  pIC50: < 4.52

## O=C1C=Cc2ccccc2C1=O [1,2-NAPHTHOQUINONE]
T-cell [2]
  CC50: > 30 µM
T-cell [3]
  pIC50: 5.15

## O=C1C(=O)c2ccccc2-c2ccccc21 [9,10-PHENANTHRENEQUINONE]
[4]
  pIC50: < 4.52
T-cell [2]
  CC50: 1.3 µM
T-cell [3]
  pIC50: 6.52
